{"source": "patent US7056909B2", "about": "“Alpha v integrin receptor antagonists” (Merck & Co., Inc., priority 2000, dated 2006)", "origin": "cited, not measured here", "conditions": "postmenopausal osteoporotic women, median of 22 months of treatment"}
{"substance": "hPTH(1–34): human parathyroid hormone 1-34 fragment (SVSEIQLMHNLGKHLNSMERVEWLRKKLQDVHNF; Parathyroid hormone; UniProt P01270 32-65, looked up, fragment)", "values": [{"measurement": "reduction in nonvertebral fractures", "result": 54, "unit": "%"}, {"measurement": "reduction in spine fractures", "result": "≥ 65", "unit": "%"}]}
